Measurements as given in US20090087845A1, “Genetic Markers Of True Low Birth Weight” (priority 2005, published 2009).
“And” between values parts separate entries of the source, which are not always exact repeats. Equal entries are not always repeated.

Tested on: placental gene expression
Assay: Placental gene expression (Affymetrix Rat Genome Chip 230.2) after SSRI (fluoxetine) exposure throughout gestation
Assay type: in vivo
Details: placenta, SSRI-exposed samples
Description: Gene expression data from pregnant rats under different forms of dietary restriction was gathered. […] (N=8) • Group 2 (CR50): Rats Given 50% of their Normal Daily Intake of Food. (N=5) • Group 3 (CR70): Rats Given 70% of their Normal Daily Intake of Food. […] (N=6) Placentas from the rats of each Group were harvested on Day 21 of gestation. RNA was extracted and gene expression was measured based on hybridization of RNA to Affymetrix Rat Genome Chips™ (230.2) (Affymetrix, Santa Clara, Calif.).
In order to determine whether placental gene expression profiling can be used to identify other prenatal exposures such as toxicants and drugs, a group of rats with drug exposure was monitored as described above. […] As with control, CR50, CR70, and HF groups, placentas from the mothers were sampled after 21 days of gestation and gene expression monitored utilizing an Affymetrix Rat Genome Chip.

SMILES: CNCCC(Oc1ccc(C(F)(F)F)cc1)c1ccccc1 (centres unmarked) [fluoxetine, Fluoxetine]
- expression, probeset 1368985_at: 4.725 and 4.454 and 4.646 and 4.715 and 4.588 and 4.472
- expression, probeset 1369005_at: 5.188 and 5.546 and 5.291 and 5.305 and 5.241 and 5.222
- expression, probeset 1369014_at: 4.757 and 5.004 and 4.708 and 4.543 and 4.616 and 4.993
- expression, probeset 1369051_at: 5.588 and 5.207 and 4.835 and 5.011 and 5.144 and 5.186
- expression, probeset 1369192_at: 5.561 and 5.364 and 5.202 and 5.355 and 5.327 and 5.66
- expression, probeset 1369754_a_at: 8.583 and 8.277 and 8.264 and 8.283 and 8.554 and 8.483
- expression, probeset 1369894_at: 3.616 and 3.758 and 3.897 and 3.839 and 4.008 and 3.982
- expression, probeset 1370115_at: 4.967 and 4.917 and 4.824 and 4.622 and 4.818 and 4.719
- expression, probeset 1370260_at: 7.313 and 7.599 and 7.249 and 7.038 and 7.707 and 6.879
- expression, probeset 1370521_at: 8.48 and 8.58 and 8.737 and 8.764 and 8.624 and 8.798
- expression, probeset 1370682_at: 5.579 and 5.507 and 5.51 and 5.944 and 5.574 and 5.843
- expression, probeset 1370688_at: 7.904 and 7.963 and 8.096 and 7.915 and 8.157 and 7.99
- expression, probeset 1370766_at: 4.633 and 4.679 and 4.503 and 4.578 and 4.207 and 4.398
- expression, probeset 1371435_at: 11.53 and 11.47 and 12.47 and 12.43 and 12.2189 and 12.12
- expression, probeset 1371813_at: 6.757 and 6.608 and 7.254 and 7.022 and 6.663 and 6.909
- expression, probeset 1372141_at: 9.643 and 9.597 and 10.34 and 10.39 and 9.957 and 10.19
- expression, probeset 1372462_at: 7.912 and 7.819 and 7.864 and 7.873 and 6.184 and 8.214
- expression, probeset 1372514_s_at: 8.136 and 8.21 and 8.071 and 8.128 and 7.741 and 8.134
- expression, probeset 1372593_at: 7.225 and 7.133 and 7.724 and 8.015 and 7.571 and 7.719
- expression, probeset 1373319_at: 9.595 and 9.441 and 10.05 and 10.11 and 10.07 and 9.901
- expression, probeset 1373396_at: 8.164 and 8.317 and 8.21 and 8.056 and 8.147 and 8.247
- expression, probeset 1373702_at: 7.559 and 7.846 and 7.181 and 7.332 and 7.377 and 7.496
- expression, probeset 1373804_at: 7.894 and 7.963 and 7.858 and 8.12 and 7.699 and 8.068
- expression, probeset 1373925_at: 6.195 and 6.159
- expression, probeset 1374112_at: 7.049 and 6.725 and 6.891 and 7.196 and 7.138 and 6.73
- expression, probeset 1374231_at: 8.494 and 8.998 and 8.117 and 8.316 and 7.948 and 8.466
- expression, probeset 1374656_at: 8.729 and 9.034 and 8.507 and 8.743 and 9.004 and 8.9546
- expression, probeset 1374739_at: 8.348 and 8.65 and 7.424 and 7.76 and 7.662 and 7.815
- expression, probeset 1374807_at: 6.505 and 6.904 and 6.697 and 6.907 and 6.749 and 6.775
- expression, probeset 1375407_at: 4.487 and 4.33 and 4.344 and 4.489 and 4.605 and 4.326
- expression, probeset 1375738_at: 4.993 (2×) and 4.843 and 5.388 and 5.322 and 5.141
- expression, probeset 1376136_at: 5.074 and 4.867 and 4.557 and 4.873 and 4.805 and 4.931
- expression, probeset 1376218_a_at: 4.961 and 5.16 and 4.667 and 4.873 and 4.562 and 4.552
- expression, probeset 1376278_at: 6.191 and 6.405 and 5.934 and 6.175 and 6.205 and 6.006
- expression, probeset 1376289_at: 3.746 and 3.75 and 3.659 and 3.772 and 3.71 and 3.697
- expression, probeset 1376294_at: 7.495 and 7.951 and 7.425 and 7.689 and 7.578 and 7.48
- expression, probeset 1376844_at: 3.958 and 3.92 and 4.036 and 4.211 and 4.082 and 4.214
- expression, probeset 1376852_at: 6.78 and 6.537 and 6.455 and 6.699 and 6.862 and 6.682
- expression, probeset 1377028_at: 5.528 and 5.846 and 5.206 and 5.427 and 5.578 and 5.375
- expression, probeset 1377123_at: 8.958 and 9.069 and 8.729 and 8.819 and 8.853 and 8.789
- expression, probeset 1377210_at: 5.83 and 5.617 and 6.032 and 5.854 and 6.198 and 5.93
- expression, probeset 1377414_at: 7.593
- expression, probeset 1377476_at: 3.935 and 3.899 and 3.84 and 3.865 and 3.998 and 4.107
- expression, probeset 1377621_at: 8.676 and 8.675 and 8.549 and 8.432 and 8.896 and 8.593
- expression, probeset 1377746_at: 6.432 and 6.591 and 6.425 and 6.509 and 6.484 and 6.597
- expression, probeset 1378275_at: 8.581 and 8.43 and 8.773 and 8.828 and 8.515 and 8.555
- expression, probeset 1378318_at: 7.572 and 7.8 and 8.112 and 7.987 and 7.864 and 8.147
- expression, probeset 1378355_a_at: 5.807 and 6.412 and 5.853 and 5.536 and 5.777 and 6.037
- expression, probeset 1378642_at: 6.331 and 6.197 and 6.546 and 6.861 and 6.598 and 6.634
- expression, probeset 1378705_at: 8.279 and 8.34 and 7.828 and 7.561 and 7.947 and 7.98
- expression, probeset 1378872_at: 4.782 and 4.711 and 4.621 and 4.863 and 4.867 and 4.775
- expression, probeset 1378992_at: 3.832 and 3.701 and 3.85 and 3.859 and 3.911 and 3.949
- expression, probeset 1379110_at: 3.965 and 4.036 and 3.739 and 3.917 and 3.886 and 3.804
- expression, probeset 1379140_at: 4.026 and 4.28 and 4.108 and 3.886 and 4.071 and 4.079
- expression, probeset 1379206_at: 6.486 and 6.611 and 6.213 and 6.405 and 6.472 and 6.395
- expression, probeset 1379235_x_at: 7.486 and 7.695 and 7.128 and 7.252 and 7.527 and 7.244
- expression, probeset 1379342_at: 6.297 and 6.3 and 6.275 and 6.188 and 6.259 and 6.187
- expression, probeset 1379408_at: 8.688 and 8.662 and 8.77 and 8.887 and 8.853 and 8.912
- expression, probeset 1379796_at: 5.201 and 4.92 and 5.205 and 5.072 and 5.171 and 5.031
- expression, probeset 1379827_at: 7.897 and 7.85 and 7.7663 and 7.925 and 7.632 and 7.663
- expression, probeset 1379963_at: 6.925 and 7.095 and 7.165 and 7.115 and 7.307 and 7.146
- expression, probeset 1379980_at: 7.864 and 7.817 and 8.195 and 8.083 and 7.784 and 8.003
- expression, probeset 1380152_at: 5.47 and 5.228 and 5.461 and 5.179 and 5.39 and 5.269
- expression, probeset 1380392_at: 6.093 and 5.622 and 5.425 and 5.398 and 5.781 and 5.646
- expression, probeset 1380454_at: 5.81 and 5.871 and 5.693 and 5.717 and 5.721 and 5.875
- expression, probeset 1381074_at: 4.343 and 4.301 and 4.059 and 4.183 and 4.17 and 4.086
- expression, probeset 1381122_at: 5.406 and 5.219 and 5.499 and 5.148 and 5.434 and 5.212
- expression, probeset 1381286_at: 5.261 and 5.374 and 5.297 and 5.034 and 5.316 and 5.389
- expression, probeset 1381483_at: 3.996 and 4.01 and 3.983 and 3.972 and 3.97 and 4.017
- expression, probeset 1381872_at: 6.498 and 7.027 and 7.042 and 6.737 and 6.911 and 6.996
- expression, probeset 1381874_at: 6.734 and 6.453 and 6.457 and 6.588 and 6.285 and 6.523
- expression, probeset 1381941_at: 8.218
- expression, probeset 1381950_at: 3.397 and 3.37 and 3.47 and 3.379 and 3.404
- expression, probeset 1381966_at: 8.36 and 8.855 and 8.774 and 8.518 and 8.76 and 8.757
- expression, probeset 1382015_at: 7.649 and 7.911 and 7.376 and 7.559 and 7.728 and 7.55
- expression, probeset 1382056_at: 8.204 and 7.693 and 8.302 and 8.683 and 9.183 and 8.357
- expression, probeset 1382110_at: 7.206 and 7.183 and 6.692 and 6.852 and 6.784 and 6.862
- expression, probeset 1382513_at: 6.939 and 6.904 and 6.918 and 6.844 and 6.991 and 6.992
- expression, probeset 1382608_at: 5.493 and 5.536 and 5.441 and 5.641 and 5.553 and 5.573
- expression, probeset 1382825_at: 6.303
- expression, probeset 1382932_at: 5.367 and 5.211 and 5.239 and 5.252 and 5.387 and 5.359
- expression, probeset 1383132_at: 5.887 and 6.391 and 5.865 and 5.893 and 5.977 and 5.951
- expression, probeset 1383300_at: 8.422 and 8.732 and 8.861 and 8.982 and 9.071 and 8.854
- expression, probeset 1383309_at: 7.874 and 8.135 and 8.529 and 8.112 and 8.518 and 7.955
- expression, probeset 1383376_at: 6.632 and 7.028 and 7.303 and 6.987 and 6.76 and 6.955
- expression, probeset 1383430_at: 6.213 and 5.851 and 6.754 and 6.641 and 6.446 and 6.508
- expression, probeset 1383443_at: 5.895 and 5.907 and 6.025 and 5.854 and 5.859 and 6.136
- expression, probeset 1383472_at: 3.955 and 3.951 and 3.984 and 4.033 and 3.887 and 3.899
- expression, probeset 1383659_a_at: 5.774 and 5.519 and 5.386 and 5.431 and 4.833 and 6.496
- expression, probeset 1383667_at: 8 and 8.041 and 8.381 and 8.126 and 8.244 and 8.175
- expression, probeset 1383670_at: 7.784 and 7.593 and 7.74 and 7.592 and 7.856 and 7.209
- expression, probeset 1383900_at: 4.742 and 4.617 and 4.606 and 4.705 and 4.749 and 4.765
- expression, probeset 1383984_at: 3.997 and 4.264 and 4.189 and 4.266 and 4.14 and 4.315
- expression, probeset 1384135_at: 7.574 and 7.593 and 7.557 and 7.727 and 7.711 and 7.722
- expression, probeset 1384195_at: 5.325 and 5.826 and 5.609 and 5.355 and 5.716 and 5.368
- expression, probeset 1384374_at: 6.358 and 6.643 and 6.365 and 5.887 and 6.421 and 6.362
- expression, probeset 1384377_at: 7.233 and 7.134 and 7.085 and 7.15 and 7.214 and 7.158
- expression, probeset 1384467_at: 8.34 and 8.507 and 8.418 and 8.058 and 8.062 and 8.234
